Assays:
[1] = Stability of sodium picosulfate in solution alone, with polyethylene glycol 4000 or with sorbitol (content by HPLC, British Pharmacopoeia); type: physicochemical
Experimental: The solution was stored at room temperature, in accelerated condition (40° C., 75%RH), and stress condition (60° C., 75%RH).

[2] = Stability of sodium picosulfate in polyethylene glycol 3350 / sorbitol solution with sodium hydrogencarbonate or sodium citrate, 3 weeks (content by HPLC); type: physicochemical; conditions: by comprising sodium hydrogencarbonate or sodium citrate
Experimental: The solution was stored at room temperature or stress condition (60° C., 75%RH) for 3 weeks. The content of sodium picosulfate was evaluated. The content of sodium picosulfate was determined by ‘Sodium picosulfate powder for oral solution’ test method of British Pharmacopoeia using high performance liquid chromatography.

Content (%) of sodium picosulfate, After 1 week Accelerated condition ([1]; 1 week, accelerated condition (40° C., 75%RH)): 102.2% | Content (%) of sodium picosulfate, After 1 week Room temp. ([1]; 1 week, room temperature): 102.2% | Content (%) of sodium picosulfate, After 1 week Stress condition ([1]; 1 week, stress condition (60° C., 75%RH)): 102.4% | Content (%) of sodium picosulfate, After 2 weeks Room temp. ([1]; 2 weeks, room temperature): 102.4% | Content (%) of sodium picosulfate, After 2 weeks Stress condition ([1]; 2 weeks, stress condition (60° C., 75%RH)): 102.5% | Content (%) of sodium picosulfate, Initial ([1]; Initial, 300 ml solution): 102.4% | Stability of sodium picosulfate (in words) ([1]; when mixed with polyethylene glycol): very unstable | Instability of sodium picosulfate caused by mixing with polyethylene glycol (in words) [2]: improved dramatically
SMILES: O=S(=O)(O)Oc1ccc(C(c2ccc(OS(=O)(=O)O)cc2)c2ccccn2)cc1 [sodium picosulfate]

From patent publication US20190000976A1, “Purgative Composition” (CTC BIO, INC., priority 2016, published 2019)
